Measurements reported in patent US10888519B2, “Immediate release pharmaceutical composition of iron chelating agents” (Jubilant Generics Limited, priority 2016, dated 2021).

Assays:
[1] = cited from earlier work
[2] = Bulk density, tapped density and flow properties (Hausner Ratio, Compressibility Index); format: physicochemical; details: for Hausner Ratio: tapped density / bulk density
Protocol: The composition of present invention were analyzed for bulk and tapped density and flow properties such as Hausner Ratio, Compressibility Index. Bulk Density and Tapped Density is determined using the standard method of Test 616 (Bulk Density and Tapped Density) of USP 32. The Hausner ratio may be calculated using formula ptap/pbulk where ptap represents tapped density of granulate mass and pbulk represents the loose bulk density of granulate mass. A Hausner ratio of <1.25 indicates a powder that is free flowing whereas >1.25 indicates poor flowability. Compressibility index is indirect measure of the flowability of the powder and it is determined according to US Pharmacopeia General Chapter <1174>. The smaller the compressibility index the better the flow properties. For example 5-15 indicates excellent, 12-16 good, 18-21 fair and >23 poor flow.

[3] = listed as Active Pharmaceutical Ingredient

SMILES: O=C(O)c1ccc(-n2nc(-c3ccccc3O)nc2-c2ccccc2O)cc1 [Deferasirox, 4-[3,5-bis(2-hydroxyphenyl)-1H-1,2,4-triazol-1-yl]benzoic acid]
- solubility in water [1]: poorly soluble in water
- Tapped Density [2]: 0.300 g/mL
- bulk density ([2]; API prior to granulation versus composition): about 0.185 g/mL
- bulk density ([2]; Table 4): 0.185 g/mL
- Compressibility Index (%) ([2]; listed as API): about 38.33%
- Compressibility Index (%) [2, 3]: 38.33% (Very Poor)
- Hausner Ratio ([2]; listed as API): about 1.62
- Hausner Ratio [2, 3]: 1.62 (Very Poor)
